Where two headings read alike, the source gives them in different places.

Twelve compounds from PMC9505067, “Synthesis of Hydantoin Androgen Receptor Antagonists and Study on Their Antagonistic Activity” (Molecules, 2022) can be followed below.

One data set has as its target T1, androgen receptor (AR) (Homo sapiens, UniProt P10275).
T1 sequence (P10275 1-920): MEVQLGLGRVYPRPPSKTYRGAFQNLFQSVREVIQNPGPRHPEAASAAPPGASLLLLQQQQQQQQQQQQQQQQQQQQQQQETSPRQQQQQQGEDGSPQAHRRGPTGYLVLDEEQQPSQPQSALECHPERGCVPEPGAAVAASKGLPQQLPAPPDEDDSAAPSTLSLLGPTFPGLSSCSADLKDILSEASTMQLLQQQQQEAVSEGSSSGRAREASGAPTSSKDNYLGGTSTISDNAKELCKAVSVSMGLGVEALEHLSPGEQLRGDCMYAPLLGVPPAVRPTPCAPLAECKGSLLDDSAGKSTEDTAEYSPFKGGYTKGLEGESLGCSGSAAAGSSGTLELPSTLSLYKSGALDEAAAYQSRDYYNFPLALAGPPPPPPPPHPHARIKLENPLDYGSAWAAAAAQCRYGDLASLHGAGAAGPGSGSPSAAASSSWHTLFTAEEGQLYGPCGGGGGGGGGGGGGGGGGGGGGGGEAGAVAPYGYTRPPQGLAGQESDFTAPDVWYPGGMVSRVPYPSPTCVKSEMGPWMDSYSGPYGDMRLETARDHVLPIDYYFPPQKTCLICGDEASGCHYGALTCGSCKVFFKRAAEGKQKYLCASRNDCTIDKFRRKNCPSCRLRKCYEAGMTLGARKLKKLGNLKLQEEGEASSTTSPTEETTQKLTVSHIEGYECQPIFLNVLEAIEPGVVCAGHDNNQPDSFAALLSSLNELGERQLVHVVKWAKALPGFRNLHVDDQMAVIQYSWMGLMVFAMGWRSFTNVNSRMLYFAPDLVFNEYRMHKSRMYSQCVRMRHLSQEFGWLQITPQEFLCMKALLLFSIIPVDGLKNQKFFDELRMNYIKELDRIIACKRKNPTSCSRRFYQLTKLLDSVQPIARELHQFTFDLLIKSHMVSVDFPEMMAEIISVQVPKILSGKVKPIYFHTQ
The data set is described as follows: AR antagonist luciferase gene reporter assay (AR plasmid pSVAR0 + MMTV-Luc, DHT at EC80).

The next data set relates to LNCaP cells. Description: Anti-proliferative activity assay in LNCaP cells (CCK-8). Type of data set: cell-based. The settings on record: 72 h treatment, normalized relative to DMSO-control treated cells, means ± SD, concentration not given. The method, then: We performed experiments accordingly to detect the anti-proliferative effect of compounds using the prostate cancer LNCaP cell line. The measurement of proliferative activity was performed after treatment with a concentration range of each compound for 72 h.
LNCaP cells were cultured in RPMI-1640 medium (Life Technologies, Carlsbad, CA, USA) supplemented with 10% (v/v) fetal bovine serum, 1% sodium pyruvate and 1% L-Glutamine. The cells were seeded into 96-well plates at a density of 8 × 10^4 cells per well. After 24 h incubation, the culture medium was removed and the cells were cultivated in the medium supplemented with 2% (v/v) fetal bovine serum for 2 days and then treated with different concentrations of test compounds for 3 days. Cell viability was measured with the CCK-8 kit (Dojindo).

The mark [1] stands for this setting: Antagonist Activity in CV-1 IC50, luciferase reporter in AR-transfected cells, DHT at EC80, 24 h incubation, means ± SD of three independent experiments.

Usually IC50 stands for the concentration that inhibits the measured activity by half. Usually melting point stands for the temperature of the solid-liquid transition. For the compound `CC1(CO)C(=O)N(c2ccc(C#N)c(C(F)(F)F)c2)C(=S)N1c1ccccc1` (stereo not drawn) [6a, 4-(4-(hydroxymethyl)-4-methyl-5-oxo-3-phenyl-2-thioxoimidazolidin-1-yl)-2-(trifluoromethyl)benzonitrile], the melting point was in the range of 216 to 219 °C. In addition, the “Antagonist Activity in CV-1 Efficacy” value at androgen receptor (AR) turned out to be 101 ± 6.7%. Moreover, the IC50 on androgen receptor (AR) (setting [1]) stood at 46.8 ± 6.2 nM. Moreover, the “Proliferative/Anti-Proliferative Activity in LNCAP” value in the data set with LNCaP cells turned out to be 149.3 ± 14.2%.

Regarding `CNC(=O)c1ccc(N2C(=S)N(c3ccc(C#N)c(C(F)(F)F)c3)C(=O)C2(C)C)cc1F` [Enzalutamide, reference compound], the “Proliferative/Anti-Proliferative Activity in LNCAP” value with LNCaP cells amounted to 71.4 ± 7.8%.

Turning to `CC1(CO)C(=O)N(c2ccc(C#N)c(C(F)(F)F)c2)C(=S)N1c1ccc(F)cc1` (stereo not drawn) [6c, 4-(3-(4-fluorophenyl)-4-(hydroxymethyl)-4-methyl-5-oxo-2-thioxoimidazolidin-1-yl)-2-(trifluoromethyl)benzonitrile], the melting point is 231 to 233 °C. At androgen receptor (AR), the “Antagonist Activity in CV-1 Efficacy” value is 91 ± 5.9%. For the same compound, at androgen receptor (AR) (setting [1]), the IC50 worked out at 46.2 ± 4.1 nM. The “Proliferative/Anti-Proliferative Activity in LNCAP” value in the data set with LNCaP cells was 118.7 ± 22.1%.

On to `C[C@]12CCC(=O)C[C@@H]1CC[C@@H]1[C@@H]2CC[C@]2(C)[C@@H](O)CC[C@@H]12` [DHT, reference compound], for which the “Proliferative/Anti-Proliferative Activity in LNCAP” value in the data set on LNCaP cells is 186.7 ± 5.6%.

Compound `COC(=O)c1ccc(N2C(=S)N(c3ccc(C#N)c(C(F)(F)F)c3)C(=O)C2(C)CO)cc1` (stereo not drawn) [6j, methyl 4-(3-(4-cyano-3-(trifluoromethyl)phenyl)-5-(hydroxymethyl)-5-methyl-4-oxo-2-thioxoimidazolidin-1-yl)benzoate] gave a melting point of 168 to 170 °C. In addition, the “Antagonist Activity in CV-1 Efficacy” value at androgen receptor (AR) came out at 95 ± 4.2%. Further, the IC50 on androgen receptor (AR) (setting [1]) came to 532 ± 58.2 nM.

`CC1(CO)C(=O)N(c2ccc(C#N)c(C(F)(F)F)c2)C(=O)N1c1ccc([N+](=O)[O-])cc1` (stereo not drawn) [7h, 4-(4-(hydroxymethyl)-4-methyl-3-(4-nitrophenyl)-2,5-dioxoimidazolidin-1-yl)-2-(trifluoromethyl)benzonitrile] gave a melting point of 160 to 162 °C. Further, the “Antagonist Activity in CV-1 Efficacy” value at androgen receptor (AR) amounted to 93 ± 9.3%. Moreover, at androgen receptor (AR) (setting [1]), the concentration for half-maximal inhibition (IC50) turned out to be 48.9 ± 12.7 nM.

The compound `CC1(CO)C(=O)N(c2cnc(C#N)c(C(F)(F)F)c2)C(=S)N1c1ccccc1` (stereo not drawn) [19a, 5-(4-(hydroxymethyl)-4-methyl-5-oxo-3-phenyl-2-thioxoimidazolidin-1-yl)-3-(trifluoromethyl)picolinonitrile] showed a melting point of 203 to 205 °C. Also, the “Antagonist Activity in CV-1 Efficacy” value at androgen receptor (AR) was 61.27 ± 12.44%. Further, the half-maximal inhibitory concentration (IC50) at androgen receptor (AR) (setting [1]) was 18.4 ± 8.65 nM. The “Proliferative/Anti-Proliferative Activity in LNCAP” value with LNCaP cells was 122.8 ± 16.8%.

Compound `Cc1ccc(N2C(=O)N(c3ccc(C#N)c(C(F)(F)F)c3)C(=O)C2(C)CO)cc1` (stereo not drawn) [7b, 4-(4-(hydroxymethyl)-4-methyl-2,5-dioxo-3-(p-tolyl)imidazolidin-1-yl)-2-(trifluoromethyl)benzonitrile] yielded a melting point of 156 to 158 °C. Moreover, on androgen receptor (AR), the “Antagonist Activity in CV-1 Efficacy” value is given as 95 ± 12.3%. The IC50 on androgen receptor (AR) (setting [1]) came to 115 ± 17.6 nM.

Take `COC(=O)c1ccc(N2C(=O)N(c3ccc(C#N)c(C(F)(F)F)c3)C(=O)C2(C)CO)cc1` (stereo not drawn) [7j, methyl 4-(3-(4-cyano-3-(trifluoromethyl)phenyl)-5-(hydroxymethyl)-5-methyl-2,4-dioxoimidazolidin-1-yl)benzoate]: the melting point lay within 139 to 141 °C. Moreover, on androgen receptor (AR), the “Antagonist Activity in CV-1 Efficacy” value is 96 ± 10.8%. Also, at androgen receptor (AR) (setting [1]), the concentration for half-maximal inhibition (IC50) is 139 ± 36.2 nM.

As to `CC1(CO)C(=O)N(c2cnc(C#N)c(C(F)(F)F)c2)C(=S)N1c1ccc(F)cc1` (stereo not drawn) [19b, 5-(3-(4-fluorophenyl)-4-(hydroxymethyl)-4-methyl-5-oxo-2-thioxoimidazolidin-1-yl)-3-(trifluoromethyl)picolinonitrile], the melting point lay within 181 to 183 °C. Moreover, on androgen receptor (AR), the IC50 is 32.5 ± 22.1 nM. In addition, the “Antagonist Activity in CV-1 Efficacy” value on androgen receptor (AR) (luciferase reporter in AR-transfected cells, DHT at EC80, 24 h, enzalutamide = 100, means ± SD of three independent experiments) was 75.55 ± 11.87%. Also, the “Proliferative/Anti-Proliferative Activity in LNCAP” value with LNCaP cells was 65.7 ± 20.5%.

`CC1(CO)C(=O)N(c2ccc(C#N)c(C(F)(F)F)c2)C(=O)N1c1ccc(Br)cc1` (stereo not drawn) [7e, 4-(3-(4-bromophenyl)-4-(hydroxymethyl)-4-methyl-2,5-dioxoimidazolidin-1-yl)-2-(trifluoromethyl)benzonitrile]: the melting point lay in the range of 102 to 104 °C. Further, the “Antagonist Activity in CV-1 Efficacy” value at androgen receptor (AR) came to 95 ± 11.2%. Besides, on androgen receptor (AR) (setting [1]), the IC50 was 84.2 ± 37.1 nM.

`CC1(CO)C(=O)N(c2ccc(C#N)c(C(F)(F)F)c2)C(=S)N1c1ccc(Br)cc1` (stereo not drawn) [6e, 4-(3-(4-bromophenyl)-4-(hydroxymethyl)-4-methyl-5-oxo-2-thioxoimidazolidin-1-yl)-2-(trifluoromethyl)benzonitrile]: the melting point is 206 to 208 °C. The “Antagonist Activity in CV-1 Efficacy” value on androgen receptor (AR) is 86 ± 6.5%. At androgen receptor (AR) (setting [1]), the half-inhibitory concentration (IC50) was 117 ± 16.3 nM.
